Measurements as given in patent publication US20250248392A1, “LETHAL BAIT FOR PEST ANT CONTROL” (priority 2024, published 2025).

Tests used:
Format in all cases: in vivo
Myrmica rubra fire ants [1] = assay: Exp. 17: choice between lethal and non-lethal liquid bait, survival of laboratory colonies; conditions: boric acid as lethal agent in baits; conclusion from Exps. 17-19 (M. rubra, F. oreas, C. modoc)
[2] = tested on: Camponotus modoc field colonies; assay: Exp. 13: seasonal consumption of liquid food baits by field colonies; conditions: Exp. 13, Jun. 18 to Sep. 7, 2021
Source text: (§1) Tubes were spaced around the entrance of C. modoc and M. rubra nests, with tube positions randomly assigned in each replicate.
(§2) For the C. modoc experiment (Exp. 13), Eppendorf tubes were affixed 5 cm apart to trees or logs housing a colony as shown, for example, in FIG. 6b. For the M. rubra experiment (Exp. 14), tubes were placed 5 cm apart around the entrance of subterranean nests. Evaporation control tubes were placed in Tupperware containers (15 cm×9 cm×10 cm) with a mesh-covered hole in the lid, and containers were set near ant nests. Replicates with M. rubra colonies (n=10; repeated on 7 dates) were run for 4 hours, and replicates with C. modoc colonies (n=13; repeated on 6 dates) were run for 24 hours. After replicates were terminated, tubes were capped, transported to the laboratory in a cooler, and weighed. All field studies were run on warm and sunny days with observable ant activity.
(§3) Colonies of C. modoc were located along the Mamquam forest service road (near Squamish, BC, Canada) and colonies of M. rubra were located at Inter River Park (District of North Vancouver, BC, Canada). […] Throughout the summer season, nutrient consumption by colonies was measured in circa 3-week intervals on six dates for C. modoc colonies from Jun. 18, 2021 to Sep. 7, 2021, and on seven dates for M. rubra colonies from May 21, 2021 to Sep. 13, 2021.

[3] = tested on: Myrmica rubra field colonies; assay: Exp. 14: seasonal consumption of liquid food baits by field colonies
Source text: as §1, §2, §3

Myrmica rubra fire ants [4] = assay: Laboratory consumption of liquid nutrient baits (Exps. 2, 4, 6, 8, 10, 12)
Method: (§4) Liquid nutrient solutions for experiments (see Table 1 for nutrient concentrations) were prepared by weighing dry ingredients (TR 204 scale; Denver Instrument Company, CO, USA), and then mixing them in distilled water. Aliquots (1 mL) of these solutions were pipetted into 1.5-mL Eppendorf tubes (Thermo Fisher Scientific, Waltham, MA 02451, U.S.A.) which were stored in a freezer (−4° C.) until needed.
(§5) Prior to experiments, Eppendorf tubes were removed from the freezer to thaw, and then vortexed to dissolve all solutes. Then, a 1-cm long piece of cotton dental wick (Richmond Dental & Medical, Charlotte, NC 28205, USA) was inserted into each tube, thus allowing ants to ingest the liquid without spillage. Also prior to bioassays, colonies were deprived of sugar water and food for 24 hours and 4 hours, respectively (the maximum time ants could endure without these foods before they attempted to chew their way out of containers). […]
(§6) Colonies of C. modoc (Exp. 1) and M. rubra (Exp. 2) were offered three choices: (1) 11 EAAs+10 non-EAAs (1.05% total w/v) in water; (2) 10 non-EAAs (0.5% w/v) in water; and (3) a water control. […] Data were analyzed using generalized linear models (GLM) and generalized linear mixed models (GLMM). For all models, the significance (p 0.05) of each predictor was assessed using a likelihood ratio test (LRT), and Tukey adjusted pairwise comparisons between means. […]

[5] = tested on: Lasius niger black garden ants; assay: Exp. 15: consumption of liquid food baits by field colonies; conditions: Exp. 15: EAAs 5.55%, sucrose 5.55%, EAAs 1.0% + sucrose 4.55% w/v, water
Source text: In Experiments 15 and 16, the bait of EAAs and sucrose was effective for diverse ant taxa including black garden ants and thatching ants, as shown in FIG. 7. In Experiment 15 (n=10), colonies of Lasius niger black garden ants were located at the base of trees on the Burnaby campus of Simon Fraser University, and tubes were affixed next to each other on tree trunks alongside the ants' foraging trails. In Experiment 16 (n=10), colonies of Formica aserva thatching ants were located along the Mamquam forest service road (see above), and tubes were placed on top of tree stumps that contained an ant colony. For both experiments, evaporation control tubes were placed in Tupperware containers (15 cm×9 cm×10 cm) with a mesh-covered hole in the lid, and containers were set near ant colonies. Each colony was offered four Eppendorf tubes that contained: (1) EAAs (5.55% w/v); (2) sucrose (5.55% w/v), (3) EAAs (1.0% w/v)+sucrose (4.55% w/v); and (4) plain water (control).

[6] = tested on: Camponotus modoc carpenter ants; assay: Laboratory consumption of liquid nutrient baits (Exps. 1, 3, 5, 7, 9, 11); conditions: Exps. 5 and 7: single nutrients and ternary blend, unadjusted and adjusted concentrations
Method: as §4, §5, §6

SMILES: OB(O)O [boric acid]
- aversion to bait consumption (Myrmica rubra fire ants [1]): not aversive to bait consumption

SMILES: OC[C@H]1O[C@@](CO)(O[C@H]2O[C@H](CO)[C@@H](O)[C@H](O)[C@H]2O)[C@@H](O)[C@@H]1O [sucrose, D-sucrose]
- change of consumption over the season [2]: decreased over time
- change of consumption over the season ([3]; Exp. 14, May 21 to Sep. 13, 2021): declined over time
- consumption by field colonies ([3]; Exp. 14: EAA 5.55%, sucrose 5.55%, EAA 1.0% + sucrose 4.55% w/v, water, seven dates, 4 hours): generally consumed more sucrose
- consumption by colonies (Myrmica rubra fire ants [4]; Exp. 6: unadjusted concentrations (urea 2.5%, EAAs 0.55%, sucrose 2.5% w/v)): preferentially consumed
- consumption by colonies (Myrmica rubra fire ants [4]; Exp. 8: adjusted concentrations (5.55% w/v)): preferentially consumed
- consumption by field colonies [5]: equally consumed

SMILES: NC(N)=O [urea]
- consumption by colonies [6]: preferentially consumed
